The nature of data set [1]: Pharmacokinetic evaluation of diclofenac release in a rat model (plasma and incision-site tissue, LC/MS/MS). It counts as in vivo. As for the experimental part: Pharmacokinetic studies in a rat model were conducted to determine the rate of diclofenac release from the composition. Male Sprague Dawley rats (four rats per time point per group) were anesthetized with isoflurane and subjected to a single surgical incision on the plantar surface of the left hind paw. The medial tendon was exposed by blunt dissection and subjected to a 20 second clamp using a mosquito hemostat.
In Group 1 the incision was sutured closed following manipulation of the tendon. The rats were administered an intraperitoneal injection of 5 mg/kg Diclofenac (as sodium salt, saline vehicle) 4 hours and 23 hours post-surgery. Blood and tissue samples were harvested at 0.25, 1, 4 and 6 hours after the second dose.
In Group 2, oxidized regenerated cellulose (Surgicel® Fibrillar absorbable hemostat) was implanted between the tendon and the metatarsals and 0.5 mg of Diclofenac (as sodium salt, saline vehicle) was instilled directly into the wound site and the incision was sutured closed. Blood samples were taken at 0.25,1, 4, 6, 24 and 48 hours post surgery.
Blood was harvested into K-EDTA tubes via cardiac puncture while the rats were anesthetized with isoflurane. Rats were terminated immediately after the blood draw by CO2 inhalation, and the skin, muscle fascia and tendon of the left hind paw incision site were harvested. The contralateral tissue of the right hind paw was harvested and retained separately.
Blood samples were centrifuged to yield plasma, the resulting plasma as well as tissue samples were sent to Covance, Madison Wis. for LC/MS/MS analysis of diclofenac. Briefly, the analytical method involves extracting ˜50 mg of tissue or 50 uL of plasma w/acetonitrile; the residue of the ACN extract is analyzed by tandem mass spectroscopy. The dynamic ranges of the plasma and tissue assays were 25 to 12,500 ng/mL and 25 to 12,500 ng/g, respectively.

A further data set relates to Male Sprague Dawley rats. Description: Brennan surgical pain model (mechanical allodynia by von Frey filaments, mechanical hyperalgesia by pin-prick test). The note with it: for Efficacy for reduction of post-surgical pain at a surgical wound site: in the oxidized regenerated cellulose-based system, MPE greater than 30 percent considered efficacious. The format is in vivo, rat. As for the experimental part: In order to evaluate the analgesic efficacy of the composition containing oxidized regenerated cellulose particles dry blended with an NSAID powder (diclofenac sodium), the Brennan surgical pain model was used (Characterization of a rat model of incisional pain, Brennan, T. J., et al., Pain: 64 (1996); 493-501). The model was performed as follows. Male Sprague Dawley rats weighing 250-300 grams were used throughout the experiment. Prior to surgery, each animal was habituated to the testing environment and a baseline response to Semmes-Weinstein (von Frey) filaments was established. Animals were anesthetized using a fresh mixture of xylazine and ketamine containing 100 mg ketamine/ml and 20 mg xylazine/ml. Each animal was injected intramuscularly with 1 ml/kg to achieve surgical anesthesia. The left hind paw was aseptically prepared and a 1 cm incision through the skin and fascia was made on the plantar surface of the hind paw, extending from the ankle distally. The middle digital tendon was isolated and crushed using mosquito hemostats for 20 seconds. Following surgery animals were tested for mechanical sensitivity at 4, 24, 48, 72 and 96 hours following surgery.
Ten rats were evaluated in each of the following groups:
Group 1. Control group: all animals were given intraperitoneal (IP) injections of saline (1 ml/kg) 1 hour before testing for mechanical allodynia and hyperalgesia.
This equates to a total of 1 mg of diclofenac sodium or approximately 4 mg/kg for a 250 g animal.
Group 3: Immediately post-tendon crush, a single dose (20 mg of micronized oxidized regenerated cellulose with an approximate particle size of 20-25 microns blended with […]) was mixed with 100 microliters of a sterile saline solution. The composition was then applied to the site of the crushed tendon.
This equates to a total of 0.5 mg of diclofenac sodium or approximately 2 mg/kg for a 250 g animal. […]
This equates to a total of 2.0 mg of diclofenac sodium or approximately 8 mg/kg for a 250 g animal.
The pin-prick test was used to assess mechanical hyperalgesia. Briefly, a blunted safety pin was used to gently tent the plantar skin of each hind paw without breaking the skin. A stopwatch was used to measure the withdrawal time following this stimulus. Increased withdrawal time (in seconds) was interpreted as mechanical hyperalgesia.
Mechanical sensitivity or mechanical allodynia from each time point was normalized against the negative control group and against each individual animal's pre-surgical mechanical sensitivity. Mechanical sensitivity was assessed using a procedure described by Chaplan et al. (J. Neurosci. Methods 1994, 53: 55-63). A series of von Frey filaments of varying rigidity strength (typically eight filaments in the series) were applied to the plantar surface of the hind paw ipsilateral to the ligations with just enough force to bend the filament. […] A positive allodynic response consists of lifting the affected paw followed immediately by licking or shaking of the paw. The order and frequency with which the filaments were applied was determined using the Dixon up-down method. Testing was initiated with the middle filament of the series with subsequent filaments being applied in consecutive fashion, ascending or descending, depending on whether a negative or positive response, respectively, was obtained with the initial filament.
Results are expressed as percent of Maximal Potential Efficacy (% MPE).

[2] abbreviates: Micronized (20–25 um) oxidized regenerated cellulose, dry/powder, 1 mg.
The mark [3] stands for this setting: Surgicel Fibrillar absorbable hemostat 6 × 6 mm, solution, 0.5 mg.
[4] abbreviates: Surgicel Fibrillar absorbable hemostat 6 × 6 mm, solution, 1.0 mg.

Entries after “also recorded” stand apart in the source; their conditions may differ. Where a name gives a salt, the structure may show the parent alone.

As to `O=C(O)Cc1ccccc1Nc1c(Cl)cccc1Cl` [DCF Free acid, 2-((2,6-ichlorophenyl)amino)benzeneacetic acid], the “Diclofenac concentrations at the surgical site” value in data set [1] (after local administration of composition containing oxidized regenerated cellulose and diclofenac, FIG. 3A) is listed as “remaining relatively high; also recorded: remained relatively high”. Moreover, the “Tissue concentrations of diclofenac” value in data set [1] (intraperitoneal injection of diclofenac solution, FIG. 3A) was “rapid decline”. Besides, in data set [1] (local administration from the composition, FIG. 3B), the “Plasma concentrations of diclofenac, local administration compared with systemic administration” value was “much lower”. Further, the “Efficacy for reduction of post-surgical pain at a surgical wound site” value (from here on “Efficacy for reduction”) with Male Sprague Dawley rats is on record as “surprisingly efficacious”.

As to `O=C(O)Cc1ccccc1Nc1c(Cl)cccc1Cl` [DCF Sol'n, 2-[(2,6-dichlorophenyl)amino]-Benzeneacetic acid, monosodium salt], the Period of analgesia with Male Sprague Dawley rats (6 mm×6 mm Surgicel Fibrillar oxidized regenerated cellulose plus diclofenac sodium and saline) amounted to 48 h. Moreover, the “Benefit at 72 hours” value in the data set on Male Sprague Dawley rats (6 mm×6 mm Surgicel Fibrillar oxidized regenerated cellulose plus diclofenac sodium and saline, 72 hours) was “smaller benefit”. Also, the “Efficacy (duration of analgesic effect)” value with Male Sprague Dawley rats (Interceed absorbable adhesion barrier 6 × 6 mm, solution, 0.5 mg) is 48 h; in the data set with Male Sprague Dawley rats (Intraplantar injection, solution, 0.5 mg), 4 h; with Male Sprague Dawley rats (setting [2]), 72 h; with Male Sprague Dawley rats (Micronized (20–25 um) oxidized regenerated cellulose, solution, 1.0 mg, applied at crushed tendon), 72 h; in the data set with Male Sprague Dawley rats (Repeated IPL injec., solution, 0.5 mg) it was 4 h; in the data set on Male Sprague Dawley rats (setting [3]), 48 h. The “Efficacy (duration of analgesic effect)” value with Male Sprague Dawley rats (setting [4]) was found to be 48 h. Also, in the data set on Male Sprague Dawley rats (Micronized oxidized regenerated cellulose (20-25 micron) mixed with diclofenac sodium and saline), the “Significant increase in analgesic effect, through” value is 72 h. Also, the “Effect at 96 hours” value in the data set on Male Sprague Dawley rats (Micronized oxidized regenerated cellulose (20-25 micron) mixed with diclofenac sodium and saline, 96 hours) was “some effect”.

For the compound `CC(C(=O)O)c1cccc(C(=O)c2ccccc2)c1` (stereo not drawn) [Ketoprofen Sol'n, ketoprofen], the “Efficacy (duration of analgesic effect)” value in the data set with Male Sprague Dawley rats (setting [3]) is listed as “Ineffective”. The “Efficacy for reduction” value in the data set on Male Sprague Dawley rats was “neither indomethacin nor ketoprofen is efficacious”.

As to `COc1cccc(C2(O)CCCCC2CN(C)C)c1` (stereo not drawn) [Tramadol Sol'n, tramadol], the “Efficacy (duration of analgesic effect)” value with Male Sprague Dawley rats (Surgicel Fibrillar absorbable hemostat 6 × 6 mm, solution, 2 mg) was 24 h.

`Cc1cccc(C)c1NC(=O)C1CCCCN1C` (stereo not drawn) [Mepiv Sol'n, mepivacaine hydrochloride]: the “Efficacy (duration of analgesic effect)” value is 4 h with Male Sprague Dawley rats (Intraplantar injection, solution, 1.0 mg); “Ineffec-” with Male Sprague Dawley rats (setting [2]); 72+ Hrs with Male Sprague Dawley rats (Repeated IPL injec., solution, 1.0 mg); 4 Hrs effect with Male Sprague Dawley rats (setting [4]).

`COc1ccc2c(c1)c(CC(=O)O)c(C)n2C(=O)c1ccc(Cl)cc1` [Inodmethacin Sol'n, indomethacin]: the “Efficacy (duration of analgesic effect)” value in the data set with Male Sprague Dawley rats (setting [3]) is “Ineffective”. Also, in the data set with Male Sprague Dawley rats, the “Efficacy for reduction” value is on record as “neither indomethacin nor ketoprofen is efficacious”.

The values above are taken from patent publication US8129359B2, “Composition and method for treating post-surgical pain” (Ethicon, Inc., priority 2004, dated 2012).
